One test addresses T1, protein kinase D3 (PKD3) (Homo sapiens, UniProt O94806).
T1 construct: This assay is performed with full length wild-type enzyme that is purchased from Invitrogen; purchased Invitrogen
T1 sequence (O94806 1-890): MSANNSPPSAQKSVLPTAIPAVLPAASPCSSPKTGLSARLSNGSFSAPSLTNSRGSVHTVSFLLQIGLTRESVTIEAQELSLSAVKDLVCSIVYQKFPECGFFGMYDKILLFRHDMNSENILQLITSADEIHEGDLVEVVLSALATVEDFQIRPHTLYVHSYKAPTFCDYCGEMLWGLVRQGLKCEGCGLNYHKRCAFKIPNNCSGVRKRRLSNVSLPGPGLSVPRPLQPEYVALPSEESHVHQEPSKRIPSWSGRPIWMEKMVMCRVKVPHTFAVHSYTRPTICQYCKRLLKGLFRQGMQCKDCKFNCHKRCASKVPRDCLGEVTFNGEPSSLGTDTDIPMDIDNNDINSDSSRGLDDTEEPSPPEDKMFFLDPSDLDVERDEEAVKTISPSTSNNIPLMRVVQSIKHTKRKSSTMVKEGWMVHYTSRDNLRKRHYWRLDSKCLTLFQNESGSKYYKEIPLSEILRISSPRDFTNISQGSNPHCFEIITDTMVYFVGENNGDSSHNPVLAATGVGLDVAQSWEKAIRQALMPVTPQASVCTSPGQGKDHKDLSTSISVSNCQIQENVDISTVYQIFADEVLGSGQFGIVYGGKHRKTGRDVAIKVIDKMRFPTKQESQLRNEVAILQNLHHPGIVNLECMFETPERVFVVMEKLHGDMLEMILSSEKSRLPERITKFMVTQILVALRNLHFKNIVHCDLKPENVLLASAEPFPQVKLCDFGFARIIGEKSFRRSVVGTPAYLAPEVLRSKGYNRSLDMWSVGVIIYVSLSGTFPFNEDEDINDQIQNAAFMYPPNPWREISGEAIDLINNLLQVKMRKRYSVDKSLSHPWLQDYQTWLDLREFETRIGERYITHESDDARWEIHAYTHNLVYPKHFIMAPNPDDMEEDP
Briefly: PKD3 TR-FRET (LANCE) kinase assay. It counts as biochemical. The note with it: full length wild-type enzyme, 20 μM ATP, syntide-2 substrate; read-out: Inhibitory Activity PKD3. From the text:
(§1) The assay to measure protein kinase D3 (PKD3) activity is a time-resolved fluorescence resonance transfer (TR-FRET) assay using PerkinElmer's LANCE™ technology. In this case, a biotinylated syntide-2 peptide is used as the substrate in this reaction. Phosphorylation of the syntide-2 substrate is detected by a specific antibody that recognizes the phosphorylated peptide. A second fluorophore, APC, is conjugated to streptavidin that binds the biotinylated syntide-2 peptide. […] Therefore, when the europium labeled secondary antibody binds on the phosphorylated peptide, it is brought into close contact with the APC and excites this fluorophore.
(§2) This assay is performed with full length wild-type enzyme that is purchased from Invitrogen. The reaction buffer consists of 35 mM Tris-HCl pH7.5, 5 mM MgCl2, 0.02% Tween-20, 20 μM ATP, 1 mM DTT and 0.2 μg/mL PKD3 enzyme. The enzyme reaction is initiated by the addition of 2 μM syntide-2 peptide substrate and the reaction carried out for 50 minutes at room temperature. The reaction is stopped by a stop/detection buffer consisting of 50 mM EDTA, 0.18 mg/mL rabbit polyclonal anti-phospho Syntide-2 antibody, 0.5 nM europium labeled anti-rabbit IgG and 10 nM streptavidin conjugated APC. After a one hour incubation with the stop/detection buffer, the reaction is read on an Envision 2100 Reader using a LANCE™ Eu/APC dual protocol. […] IC50 values are calculated using an Activity Base (IDBS) software program.

A further test deals with T2, protein kinase D2 (PKD2) (Homo sapiens, UniProt Q9BZL6).
T2 construct: This assay is performed with full length wild-type enzyme purchase from Invitrogen; purchased Invitrogen
T2 sequence (Q9BZL6 1-878): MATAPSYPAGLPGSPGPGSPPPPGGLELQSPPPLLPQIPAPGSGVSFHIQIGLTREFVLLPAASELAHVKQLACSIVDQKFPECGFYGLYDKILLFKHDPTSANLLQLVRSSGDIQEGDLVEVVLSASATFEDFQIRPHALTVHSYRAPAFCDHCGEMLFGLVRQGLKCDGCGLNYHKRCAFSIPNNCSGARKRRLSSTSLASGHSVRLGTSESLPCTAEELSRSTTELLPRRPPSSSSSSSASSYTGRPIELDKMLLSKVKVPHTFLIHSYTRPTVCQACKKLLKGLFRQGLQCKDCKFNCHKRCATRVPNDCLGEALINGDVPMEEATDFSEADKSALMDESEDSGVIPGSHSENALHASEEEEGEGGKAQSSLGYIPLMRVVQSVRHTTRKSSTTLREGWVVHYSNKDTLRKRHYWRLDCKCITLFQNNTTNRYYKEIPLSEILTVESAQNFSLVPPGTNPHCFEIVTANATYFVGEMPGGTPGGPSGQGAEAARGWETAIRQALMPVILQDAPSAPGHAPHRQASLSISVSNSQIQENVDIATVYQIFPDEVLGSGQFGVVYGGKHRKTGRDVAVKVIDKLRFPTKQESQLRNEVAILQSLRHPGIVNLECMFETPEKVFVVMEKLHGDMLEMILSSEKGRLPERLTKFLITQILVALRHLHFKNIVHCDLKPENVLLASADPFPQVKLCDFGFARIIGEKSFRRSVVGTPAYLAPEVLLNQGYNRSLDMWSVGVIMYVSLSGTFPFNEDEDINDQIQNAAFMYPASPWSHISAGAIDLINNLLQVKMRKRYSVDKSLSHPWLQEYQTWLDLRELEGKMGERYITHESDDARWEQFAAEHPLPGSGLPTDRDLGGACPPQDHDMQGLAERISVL
Briefly: PKD2 TR-FRET (LANCE) kinase assay. Type of test: biochemical. The note with it: full length wild-type enzyme, 20 μM ATP, syntide-2 substrate; read-out: Inhibitory Activity PKD2.
From the text: as §1, with “D2 (PKD2)” for “D3 (PKD3)”
as §2, with “wild-type enzyme purchase from Invitrogen.” for “wild-type enzyme that is purchased from Invitrogen.”, “0.2 μg/mL PKD2 enzyme. The” for “0.2 μg/mL PKD3 enzyme. The”, “a stop/detection Buffer consisting of” for “a stop/detection buffer consisting of”
On the technique in general: Time-resolved FRET reads energy transfer from a long-lived donor to a nearby acceptor.

SMILES strings stand for the structures.

With `NC(=O)c1cc(-c2ccnc(NCc3ccccc3Cl)c2)nc(N2CCNCC2)c1` [2′-(2-Chlorobenzylamino-6-piperazin-1-yl-[2,4′]bipyridinyl-4-carboxylic acid amide], the IC50 was found to be 31 nM on protein kinase D3 (PKD3) and 368 nM at protein kinase D2 (PKD2).
The like results for `NC(=O)c1cc(-c2ccnc(NC3CCCCC3)c2)nc(N2CCN3CCC[C@@H]3C2)c1` [2′-Cyclohexylamino-6-(R)-hexahydro-pyrrolo[1,2-a]pyrazin-2-yl-[2,4′]bipyridinyl-4-carboxylic acid amide] were, in that order, 20 nM and 297 nM.
With `N#CCNC(=O)c1ccc(-c2ccnc(NC3CCCCC3)c2)nc1N1CCNCC1` [2′-Cyclohexylamino-6-piperazin-1-yl-[2,4′]bipyridinyl-5-carbonxylic acid cyanomethyl-amide], the figures for the IC50 at protein kinase D3 (PKD3) and on protein kinase D2 (PKD2) were 114 nM and 281 nM, respectively.
Turning to `COC(=O)c1ccc(-c2ccnc(NC3CCCCC3)c2)nc1N1CCNCC1` [2′-Cyclohexylamino-6-piperazin-1-yl-[2,4′]bipyridinyl-5-carboxylic acid methyl ester], the IC50 was determined as 166 nM on protein kinase D3 (PKD3) and 500 nM at protein kinase D2 (PKD2).
As to `NC(=O)c1cc(-c2ccnc(NCCc3ccc(O)cc3)c2)nc(N2CCNCC2)c1` [2′-[2-(4-Hydroxyphenyl)ethylamino]-6-piperazin-1-yl-[2,4′]bipyridinyl-4-carboxylic acid amide], the IC50 on protein kinase D3 (PKD3) worked out at 2 nM; on protein kinase D2 (PKD2), 402 nM.
In the case of `O=C1NCc2c1cc(-c1ccnc(NC3CCCCC3)c1)nc2N1CCn2cnnc2C1` [6-(2-Cyclohexylamino-pyridin-4yl)-4-(5,6-dihydro-8H-[1,2,4]triazolo[4,3-a]pyrazin-7-yl)-2,3-dihydro-pyrrolo[3,4-c]pyridin-1-one], the IC50 at protein kinase D3 (PKD3) worked out at 74 nM; on protein kinase D2 (PKD2) it was 466 nM.
With `c1cc(-c2cc(-c3nnco3)cc(N3CCNCC3)n2)cc(NC2CCCCC2)n1` [Cyclohexyl-(4-[1,3,4]oxadiazol-2-yl-6-piperazin-1-yl-[2,4′]bipyridinyl-2′-yl)-amine], the values for the IC50 at protein kinase D3 (PKD3) and at protein kinase D2 (PKD2) were 14 nM and 214 nM, respectively.
In the case of `CS(=O)(=O)c1cc(-c2ccnc(NC3CCCCC3)c2)nc(N2CCNCC2)c1` [Cyclohexyl-(4-methanesulfonyl-6-piperazin-1-yl-[2,4′]bipyridinyl-2′-yl)-amine], the IC50 on protein kinase D3 (PKD3) stood at 85 nM; at protein kinase D2 (PKD2), 735 nM.
Take `O=[N+]([O-])c1cc(-c2ccnc(NC3CCCCC3)c2)nc(N2CCNCC2)c1` [Cyclohexyl-(4-nitro-6-piperazin-1-yl-[2,4′]bipyridinyl-2′-yl)-amine]: the IC50 at protein kinase D3 (PKD3) turned out to be 5 nM; on protein kinase D2 (PKD2) it was 62 nM.
In the case of `FC(F)(F)c1cc(-c2ccnc(NC3CCCCC3)c2)nc(N2CCNCC2)c1` [Cyclohexyl-(6-piperazin-1-yl-4-trifluoromethyl-[2,4′]bipyridinyl-2′-yl)amine], the IC50 on protein kinase D3 (PKD3) was 13 nM; at protein kinase D2 (PKD2), 101 nM.
As to `Nc1cc(-c2ccnc(NC3CCCCC3)c2)nc(N2CCNCC2)c1` [N*2′*-Cyclohexyl-6-piperazin-1-yl-[2,4′]bipyridinyl-4,2′-diamine], the IC50 at protein kinase D3 (PKD3) is 38 nM; at protein kinase D2 (PKD2), 361 nM.
In the case of `Fc1ccc(Nc2cc(-c3ccnc(NC4CCCCC4)c3)nc(N3CCNCC3)c2)cc1` [N*2′*-Cyclohexyl-N*4*-(4-fluoro-phenyl)-6-piperazin-1-yl-[2,4′]bipyridinyl-4,2′-diamine], the IC50 was determined as 252 nM at protein kinase D3 (PKD3) and 1160 nM at protein kinase D2 (PKD2).

For the origin of these results see patent US20110092505A1, “ORGANIC COMPOUNDS” (priority 2008, published 2011).
